Results reported in patent US11472808B2, “Substituted pyrrolo[1,2-c]pyrimidines as hepatitis B antiviral agents” (Enanta Pharmaceuticals, Inc., priority 2019, dated 2022).

Key:
HBV = experiment: HepAD38 anti-HBV assay: reduction of viral product accumulation (virion DNA qPCR, HBsAg/HBeAg ELISA); format: cell-based; conditions: Hepatitis B virus, 120 h; HepAD38 cells; concentration reducing viral product accumulation by 50% relative to no drug controls; harvest five days after compound addition; read-out: HepAD38 EC50
Summary of the method: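 EC50 values reflect 50% reduction, relative to untreated controls, in virion DNA (qPCR) or HBsAg/HBeAg (ELISA) from lysates or supernatants. Washed HepAD38 cells without tetracycline were exposed to compound for 5 days. In the 8-day variant, medium and compound were renewed on days 2 and 5.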

[1] = Compound toxicity, ATPLite total ATP levels; format: cell-based; conditions: human, HepG2 cells; concentration reducing total ATP levels by 50% relative to no drug controls; ATPLite three days after compound addition
Method: Compound toxicity is evaluated by seeding cells at 15,000 cells/well and treating with compound as described above.

| SMILES | EC50 (HBV) [µM] | CC50 at 3 days [1] [µM] |
| --- | --- | --- |
| O=S(=O)(N[C@H]1CC2=C(c3ccn(C(F)F)n3)[C@H](c3ccc(F)cc3Cl)N=C(c3nccs3)N2C1)c1ccccc1 [Example 367] | < 0.1 | > 25 |
| O=S(=O)(N[C@H]1CC2=C(c3ccn(C(F)F)n3)[C@H](c3ccc(F)cc3Cl)N=C(c3nccs3)N2C1)N1CC2CC2C1 (some centres unmarked) [Example 273] | < 0.1 | < 10 |
| O=S(=O)(N[C@H]1CC2=C(c3ccn(C(F)F)n3)[C@H](c3ccc(F)cc3Cl)N=C(c3nccs3)N2C1)N1CCCCC1 [Example 73] | < 0.1 | 10 to 25 |
| O=S(=O)(N[C@H]1CC2=C(c3ccn(C(F)F)n3)[C@H](c3ccc(F)cc3Cl)N=C(c3nccs3)N2C1)N1CCCC1 [Example 271] | < 0.1 | 10 to 25 |
| O=S(=O)(N[C@H]1CC2=C(c3ccn(C(F)F)n3)[C@H](c3ccc(F)cc3Cl)N=C(c3nccs3)N2C1)N1CCC(O)CC1 [Example 75] | < 0.1 | > 25 |
| O=S(=O)(N[C@H]1CC2=C(c3ccn(C(F)F)n3)[C@H](c3ccc(F)cc3Cl)N=C(c3nccs3)N2C1)N[C@H](c1ccccn1)C1CC1 [Example 353] | < 0.1 | > 25 |
| O=S(=O)(N[C@H]1CC2=C(c3ccn(C(F)F)n3)[C@H](c3ccc(F)cc3Cl)N=C(c3nccs3)N2C1)N1CCCCC12CCC2 [Example 285] | < 0.1 | > 25 |
| O=S(=O)(N[C@H]1CC2=C(c3ccn(C(F)F)n3)[C@H](c3ccc(F)cc3Cl)N=C(c3nccs3)N2C1)c1cccc(C(O)c2ccccn2)c1 (some centres unmarked) [Example 339] | < 0.1 | > 25 |
| O=S1(=O)NCCN1[C@H]1CC2=C(c3ccn(C(F)F)n3)[C@H](c3ccc(F)cc3Cl)N=C(c3nccs3)N2C1 [Example 376] | < 0.1 | > 25 |
| O=S(=O)(N[C@H]1CC2=C(c3ccn(C(F)F)n3)[C@H](c3ccc(F)cc3Cl)N=C(c3nccs3)N2C1)c1ccc(C(O)c2ccccn2)cc1 (some centres unmarked) [Example 334] | < 0.1 | < 10 |
| CS(=O)(=O)NC1CCN(S(=O)(=O)N[C@H]2CC3=C(c4ccn(C(F)F)n4)[C@H](c4ccc(F)cc4Cl)N=C(c4nccs4)N3C2)C1 (some centres unmarked) [Example 290] | < 0.1 | > 25 |
| O=S(=O)(N[C@H]1CC2=C(c3ccn(C(F)F)n3)[C@H](c3ccc(F)cc3Cl)N=C(c3nccs3)N2C1)N1CCC(O)(CO)CC1 [Example 89] | < 0.1 | > 25 |
| O=C(N[C@H]1CC2=C(c3ccn(C(F)F)n3)[C@H](c3ccc(F)cc3Cl)N=C(c3nccs3)N2C1)c1ccccc1 [Example 213] | < 0.1 | 10 to 25 |
| O=S(=O)(NCCCO)N[C@H]1CC2=C(c3ccn(C(F)F)n3)[C@H](c3ccc(F)cc3Cl)N=C(c3nccs3)N2C1 [Example 79] | < 0.1 | > 25 |
| O=C(N[C@H]1CC2=C(c3ccn(C(F)F)n3)[C@H](c3ccc(F)cc3Cl)N=C(c3nccs3)N2C1)c1nccs1 [Example 235] | < 0.1 | > 25 |
| O=S(=O)(N[C@H]1CC2=C(c3ccn(C(F)F)n3)[C@H](c3ccc(F)cc3Cl)N=C(c3nccs3)N2C1)c1ccccc1F [Example 387] | < 0.1 | > 25 |
| Nc1cccc(S(=O)(=O)N[C@H]2CC3=C(c4ccn(C(F)F)n4)[C@H](c4ccc(F)cc4Cl)N=C(c4nccs4)N3C2)n1 [Example 383] | < 0.1 | > 25 |
| O=S(=O)(N[C@H]1CC2=C(c3ccn(C(F)F)n3)[C@H](c3ccc(F)cc3Cl)N=C(c3nccs3)N2C1)N[C@H]1C[C@H](O)C1 [Example 157] | < 0.1 | > 25 |
| O=S(=O)(N[C@H]1CC2=C(c3ccn(C(F)F)n3)[C@H](c3ccc(F)cc3Cl)N=C(c3nccs3)N2C1)N1CC(O)C1 [Example 95] | < 0.1 | > 25 |
| O=C1CCC(S(=O)(=O)N[C@H]2CC3=C(c4ccn(C(F)F)n4)[C@H](c4ccc(F)cc4Cl)N=C(c4nccs4)N3C2)CC1 [Example 97] | < 0.1 | > 25 |
| O=C(N[C@H]1CC2=C(c3ccn(C(F)F)n3)[C@H](c3ccc(F)cc3Cl)N=C(c3nccs3)N2C1)c1ccccn1 [Example 214] | < 0.1 | 10 to 25 |
| O=S(=O)(N[C@H]1CC2=C(c3ccn(C(F)F)n3)[C@H](c3ccc(F)cc3Cl)N=C(c3nccs3)N2C1)c1ncc[nH]1 [Example 362] | < 0.1 | > 25 |

| SMILES | EC50 (HBV) [µM] | CC50 at 3 days [1] [µM] |
| --- | --- | --- |
| O=S(=O)(NCCc1ccccn1)N[C@H]1CC2=C(c3ccn(C(F)F)n3)[C@H](c3ccc(F)cc3Cl)N=C(c3nccs3)N2C1 [Example 309] | < 0.1 | > 25 |
| O=S(=O)(N[C@H]1CC2=C(c3ccn(C(F)F)n3)[C@H](c3ccc(F)cc3Cl)N=C(c3nccs3)N2C1)N1CCCC[C@@H]1C(F)(F)F [Example 301] | < 0.1 | > 25 |
| O=S(=O)(N[C@H]1CC2=C(c3ccn(C(F)F)n3)[C@H](c3ccc(F)cc3Cl)N=C(c3nccs3)N2C1)c1ccc(Br)cn1 [Example 368] | < 0.1 | > 25 |
| O=S(=O)(N[C@H]1CC2=C(c3ccn(C(F)F)n3)[C@H](c3ccc(F)cc3Cl)N=C(c3nccs3)N2C1)N1CCC(O)(c2ccccc2)CC1 [Example 257] | < 0.1 | 10 to 25 |
| O=S(=O)(N[C@H]1CC2=C(c3ccn(C(F)F)n3)[C@H](c3ccc(F)cc3Cl)N=C(c3nccs3)N2C1)c1cccc(F)c1 [Example 386] | < 0.1 | 10 to 25 |
| O=S(=O)(N[C@H]1CC2=C(c3ccn(C(F)F)n3)[C@H](c3ccc(F)cc3Cl)N=C(c3nccs3)N2C1)c1cn[nH]c1 [Example 20] | < 0.1 | > 25 |
| CS(=O)(=O)N1CCN(S(=O)(=O)N[C@H]2CC3=C(c4ccn(C(F)F)n4)[C@H](c4ccc(F)cc4Cl)N=C(c4nccs4)N3C2)CC1 [Example 151] | < 0.1 | > 25 |
| O=S(=O)(N[C@H]1CC2=C(c3ccn(C(F)F)n3)[C@H](c3ccc(F)cc3Cl)N=C(c3nccs3)N2C1)c1cccnc1 [Example 365] | < 0.1 | > 25 |
| O=S(=O)(N[C@H]1CC2=C(c3ccn(C(F)F)n3)[C@H](c3ccc(F)cc3Cl)N=C(c3nccs3)N2C1)c1ccc(Br)cc1 [Example 389] | < 0.1 | > 25 |
| CS(=O)(=O)CS(=O)(=O)N[C@H]1CC2=C(c3ccn(C(F)F)n3)[C@H](c3ccc(F)cc3Cl)N=C(c3nccs3)N2C1 [Example 335] | < 0.1 | > 25 |
| O=S(=O)(N[C@H]1CC2=C(c3ccn(C(F)F)n3)[C@H](c3ccc(F)cc3Cl)N=C(c3nccs3)N2C1)N1CCC(O)(C2CC2)CC1 [Example 270] | < 0.1 | < 10 |
| O=S(=O)(N[C@H]1CC2=C(c3ccn(C(F)F)n3)[C@H](c3ccc(F)cc3Cl)N=C(c3nccs3)N2C1)[C@H]1C[C@H](O)C1 [Example 370] | < 0.1 | > 25 |
| O=S(=O)(N[C@H]1CC2=C(c3ccn(C(F)F)n3)[C@H](c3ccc(F)cc3Cl)N=C(c3nccs3)N2C1)c1ccccn1 [Example 364] | < 0.1 | > 25 |
| O=S(=O)(N[C@H]1CC2=C(c3ccn(C(F)F)n3)[C@H](c3ccc(F)cc3Cl)N=C(c3nccs3)N2C1)c1cnn(S(=O)(=O)c2cn[nH]c2)c1 [Example 21] | < 0.1 | 10 to 25 |
| O=S(=O)(N[C@H]1CC2=C(c3ccn(C(F)F)n3)[C@H](c3ccc(F)cc3Cl)N=C(c3nccs3)N2C1)N1CCC(O)(c2cccnc2)CC1 [Example 264] | < 0.1 | > 25 |
| O=Cc1ccc(S(=O)(=O)N[C@H]2CC3=C(c4ccn(C(F)F)n4)[C@H](c4ccc(F)cc4Cl)N=C(c4nccs4)N3C2)cc1 [Example 332] | < 0.1 | > 25 |
| CC(C)C[C@H](NS(=O)(=O)N[C@H]1CC2=C(c3ccn(C(F)F)n3)[C@H](c3ccc(F)cc3Cl)N=C(c3nccs3)N2C1)c1ccccn1 [Example 359] | < 0.1 | > 25 |
| O=S(=O)(N[C@H]1CC2=C(c3ccn(C(F)F)n3)[C@H](c3ccc(F)cc3Cl)N=C(c3nccs3)N2C1)N1C[C@@H](F)[C@@H](F)C1 [Example 274] | < 0.1 | < 10 |
| CCOC(=O)CC1(S(=O)(=O)N[C@H]2CC3=C(c4ccn(C(F)F)n4)[C@H](c4ccc(F)cc4Cl)N=C(c4nccs4)N3C2)CC1 [Example 369] | < 0.1 | > 25 |
| O=S(=O)(N[C@H]1CC2=C(c3ccn(C(F)F)n3)[C@H](c3ccc(F)cc3Cl)N=C(c3nccs3)N2C1)N1CCOCC1 [Example 74] | < 0.1 | > 25 |
| O=S(=O)(N[C@H]1CC2=C(c3ccn(C(F)F)n3)[C@H](c3ccc(F)cc3Cl)N=C(c3nccs3)N2C1)C1(CCO)CC1 [Example 379] | < 0.1 | 10 to 25 |
